This passage reports Cmax and Ki results from ChEMBL document CHEMBL1153335, “Incorporation of neutral C-terminal residues in 3-amidinophenylalanine-derived matriptase inhibitors” (Bioorg Med Chem Lett, 2009).

Data set [1] relates to Rattus norvegicus. Put plainly: Cmax in rat assessed as melagatran level at 20 mg/kg, po after 120 mins. Format: ADME, organism-based. More on the design: dose 20 mg/kg, route oral. To be noted: in vivo, 2 h.
For data set [2], the system named is Rattus norvegicus. Put plainly: Cmax in rat assessed as N-hydroxy-melagatran level at 20 mg/kg, po after 120 mins. Format: ADME, organism-based. Further details: dose 20 mg/kg, route oral. To be noted: in vivo, 2 h.
The target in data set [3] is Urokinase-type plasminogen activator (Homo sapiens, UniProt P00749). Put plainly: Inhibition of uPA.
Data set [4] concerns the target Plasminogen (Homo sapiens, UniProt P00747). Put plainly: Inhibition of plasmin.
Data set [5] concerns the target T1, Suppressor of tumorigenicity 14 protein (Homo sapiens, UniProt Q9Y5Y6).
T1 sequence (Q9Y5Y6 whole entry): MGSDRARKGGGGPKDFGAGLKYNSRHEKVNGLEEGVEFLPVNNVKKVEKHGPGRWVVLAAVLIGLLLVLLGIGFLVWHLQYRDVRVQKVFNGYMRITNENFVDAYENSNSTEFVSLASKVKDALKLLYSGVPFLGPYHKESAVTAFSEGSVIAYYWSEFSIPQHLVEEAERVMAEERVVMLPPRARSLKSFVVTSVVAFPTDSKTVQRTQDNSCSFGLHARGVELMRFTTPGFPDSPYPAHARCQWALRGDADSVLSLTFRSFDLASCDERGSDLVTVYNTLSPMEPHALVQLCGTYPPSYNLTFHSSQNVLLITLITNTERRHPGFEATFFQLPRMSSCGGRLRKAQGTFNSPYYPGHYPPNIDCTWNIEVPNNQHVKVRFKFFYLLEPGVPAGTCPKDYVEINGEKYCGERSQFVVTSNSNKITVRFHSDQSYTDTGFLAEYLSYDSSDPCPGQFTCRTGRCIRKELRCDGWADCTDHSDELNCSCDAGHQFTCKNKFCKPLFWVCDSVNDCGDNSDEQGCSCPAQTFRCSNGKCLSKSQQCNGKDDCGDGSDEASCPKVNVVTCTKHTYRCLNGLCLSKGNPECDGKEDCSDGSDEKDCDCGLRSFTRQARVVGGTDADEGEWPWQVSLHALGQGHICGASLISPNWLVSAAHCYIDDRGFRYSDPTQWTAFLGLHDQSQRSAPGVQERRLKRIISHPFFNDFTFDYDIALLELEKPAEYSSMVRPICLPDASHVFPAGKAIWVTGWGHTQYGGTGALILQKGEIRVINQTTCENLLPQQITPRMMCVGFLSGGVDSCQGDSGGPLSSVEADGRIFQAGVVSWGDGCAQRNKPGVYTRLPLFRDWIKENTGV
Put plainly: Inhibition of matriptase.

For data set [6], the target named is Coagulation factor X (Homo sapiens, UniProt P00742). Put plainly: Inhibition of factor 10a.
Coagulation factor X, sequence (P00742 41-179 limits assumed): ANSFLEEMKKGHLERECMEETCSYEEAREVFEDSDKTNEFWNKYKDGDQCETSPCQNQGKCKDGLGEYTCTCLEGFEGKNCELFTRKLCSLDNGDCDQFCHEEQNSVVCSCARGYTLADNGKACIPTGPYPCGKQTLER
Coagulation factor X, sequence (P00742 235-488 limits assumed): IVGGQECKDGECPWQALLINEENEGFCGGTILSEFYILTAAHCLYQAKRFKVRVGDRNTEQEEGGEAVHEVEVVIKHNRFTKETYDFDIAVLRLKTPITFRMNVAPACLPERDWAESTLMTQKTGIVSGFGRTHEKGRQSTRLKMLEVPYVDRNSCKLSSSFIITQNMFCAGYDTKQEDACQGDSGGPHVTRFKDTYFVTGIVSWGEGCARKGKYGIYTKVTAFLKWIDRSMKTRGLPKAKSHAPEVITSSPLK
Data set [7] concerns the target Prothrombin (Homo sapiens, UniProt P00734). Put plainly: Inhibition of thrombin.

Plasminogen, sequence (P00747 97-580 limits assumed): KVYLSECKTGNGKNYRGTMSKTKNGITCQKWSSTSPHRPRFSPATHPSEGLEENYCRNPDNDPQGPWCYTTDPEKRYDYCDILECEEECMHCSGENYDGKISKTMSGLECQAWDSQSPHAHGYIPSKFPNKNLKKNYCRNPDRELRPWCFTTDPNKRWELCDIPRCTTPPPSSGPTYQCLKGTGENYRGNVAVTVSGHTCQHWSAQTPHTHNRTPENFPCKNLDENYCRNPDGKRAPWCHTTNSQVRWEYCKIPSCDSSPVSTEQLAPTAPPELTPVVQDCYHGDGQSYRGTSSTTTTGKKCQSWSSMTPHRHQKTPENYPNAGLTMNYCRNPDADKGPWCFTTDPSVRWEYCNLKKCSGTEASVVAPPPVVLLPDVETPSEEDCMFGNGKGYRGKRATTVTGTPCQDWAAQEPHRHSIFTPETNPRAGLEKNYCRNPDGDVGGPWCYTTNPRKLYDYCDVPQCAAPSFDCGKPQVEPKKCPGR
Plasminogen, sequence (P00747 581-810 limits assumed): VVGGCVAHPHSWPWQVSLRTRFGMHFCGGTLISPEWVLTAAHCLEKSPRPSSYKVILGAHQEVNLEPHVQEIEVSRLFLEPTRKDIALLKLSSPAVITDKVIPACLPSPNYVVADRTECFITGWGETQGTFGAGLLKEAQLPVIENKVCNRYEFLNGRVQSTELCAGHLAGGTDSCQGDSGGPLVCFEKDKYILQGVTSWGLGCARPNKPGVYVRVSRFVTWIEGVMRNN

One may read the Cmax as the maximum level reached in the sampled fluid or tissue. Take `CCOC(=O)CN[C@@H](C(=O)N1CC[C@H]1C(=O)NCc1ccc(/C(N)=N\O)cc1)C1CCCCC1` [XIMELAGATRAN]: the values for the Cmax in data set [1] and in data set [2] were 1000 nM and 1100 nM, respectively.

Usually Ki stands for a dissociation constant, usually derived from enzyme kinetics or from competition with a known ligand. A lower Ki goes with higher affinity. For `N=C(N)c1cccc(C[C@H](NS(=O)(=O)c2cccc(NC(=O)CCN)c2)C(=O)N2CCCC[C@@H]2C(=O)O)c1`, the Ki in data set [3] was found to be 7.3 µM; in data set [4], 9.4 µM; in data set [5], 0.18 µM; in data set [6], 11 µM; in data set [7], 2.3 µM.

With `COC(=O)[C@H]1CCCCN1C(=O)[C@H](Cc1cccc(C(=N)N)c1)NS(=O)(=O)c1cccc(NC(=O)CCN)c1`, the Ki amounted to 76 µM in data set [3]; 4.9 µM in data set [4]; 0.1 µM in data set [5]; 0.1 µM in data set [6]; 24.2 µM in data set [7].

For the compound `CNC(=O)CCCC1CCN(C(=O)[C@H](Cc2cccc(C(=N)N)c2)NS(=O)(=O)c2cccc(NC(=O)CCN)c2)CC1`, the Ki in data set [3] stood at 3.3 µM; in data set [4], 1.6 µM; in data set [6], 10 µM; in data set [7], 0.85 µM.

On to `N=C(N)c1cccc(C[C@H](NS(=O)(=O)c2cccc(NC(=O)CCN)c2)C(=O)N2CCCCC2)c1`, for which the Ki was 2.6 µM in data set [3]; 3.3 µM in data set [4]; 0.033 µM in data set [5]; 10 µM in data set [6]; 0.27 µM in data set [7].

In the case of `COC(=O)CCCC1CCN(C(=O)[C@H](Cc2cccc(C(=N)N)c2)NS(=O)(=O)c2cccc(NC(=O)CCN)c2)CC1`, the Ki in data set [3] amounted to 2.5 µM; in data set [4], 2.8 µM; in data set [6], 6.1 µM; in data set [7], 0.6 µM.

In the case of `CC1CCN(C(=O)[C@H](Cc2cccc(C(=N)N)c2)NS(=O)(=O)c2cccc(NC(=O)CCN)c2)CC1`, the Ki is 3 µM in data set [3]; 6.2 µM in data set [4]; 0.053 µM in data set [5]; 4.4 µM in data set [6]; 0.11 µM in data set [7].

As for `N=C(N)c1cccc(C[C@H](NS(=O)(=O)c2cccc(NC(=O)CCN)c2)C(=O)N2CCCC[C@H]2C(=O)O)c1`, the Ki amounted to 193 µM in data set [3]; 79 µM in data set [4]; 11 µM in data set [5]; 30 µM in data set [6]; 159 µM in data set [7].

As to `CNC(=O)CCC(=O)N1CCN(C(=O)[C@H](Cc2cccc(C(=N)N)c2)NS(=O)(=O)c2cccc(NC(=O)CCN)c2)CC1`, the Ki in data set [3] was found to be 16.9 µM; in data set [4] it was 3.6 µM; in data set [5], 0.053 µM; in data set [6], 44 µM; in data set [7] it was 29 µM.

As to `N=C(N)c1cccc(C[C@H](NS(=O)(=O)c2cccc(NC(=O)CCN)c2)C(=O)N2CCC(CCCC(=O)O)CC2)c1`, the Ki in data set [3] came out at 17 µM; in data set [4], 3.3 µM; in data set [6], 18 µM; in data set [7], 14 µM.

On to `CC1CCCCN1C(=O)[C@H](Cc1cccc(C(=N)N)c1)NS(=O)(=O)c1cccc(NC(=O)CCN)c1` (some centres not stated), for which the Ki was 34.5 µM in data set [3]; 4.5 µM in data set [4]; 0.47 µM in data set [5]; 17 µM in data set [6]; 0.395 µM in data set [7].

Consider `N=C(N)c1cccc(C[C@H](NS(=O)(=O)c2cccc(NC(=O)CCN)c2)C(=O)N2CCC(CCCC(N)=O)CC2)c1`, for which the Ki in data set [3] came out at 2.1 µM; in data set [4], 2.9 µM; in data set [6] it was 8.2 µM; in data set [7], 0.67 µM.

Consider `CCOC(=O)N1CCN(C(=O)[C@H](Cc2cccc(C(=N)N)c2)NS(=O)(=O)c2cccc(NC(=O)CCN)c2)CC1`, for which the Ki was 9.2 µM in data set [3]; 13.4 µM in data set [4]; 0.065 µM in data set [5]; 26 µM in data set [6]; 5.1 µM in data set [7].

Take `N=C(N)c1cccc(C[C@H](NS(=O)(=O)c2cccc(NC(=O)CCN)c2)C(=O)N2CCN(C(=O)OCc3ccccc3)CC2)c1`: the Ki came out at 3.3 µM in data set [3]; 1.3 µM in data set [4]; 0.0075 µM in data set [5]; 19 µM in data set [6]; 1.4 µM in data set [7].

Regarding `N=C(N)c1cccc(C[C@H](NS(=O)(=O)c2cccc(NC(=O)CCN)c2)C(=O)N2CCCC(C(N)=O)C2)c1` (some centres not stated), the Ki in data set [3] came out at 7.4 µM; in data set [4] it was 1.3 µM; in data set [6], 15 µM; in data set [7], 2.1 µM.

For `N=C(N)c1cccc(C[C@H](NS(=O)(=O)c2cccc(NC(=O)CCN)c2)C(=O)N2CCN(c3ccc(O)cc3)CC2)c1`, the Ki was found to be 8.37 µM in data set [3]; 2.5 µM in data set [4]; 0.15 µM in data set [5]; 2.5 µM in data set [6]; 14.5 µM in data set [7].

For `N=C(N)c1cccc(C[C@H](NS(=O)(=O)c2cccc(NC(=O)CCN)c2)C(=O)N2CCC(Cc3ccccc3)CC2)c1`, the inhibition constant Ki amounted to 2.2 µM in data set [3]; 2.8 µM in data set [4]; 0.017 µM in data set [5]; 3.4 µM in data set [6]; 0.35 µM in data set [7].

Regarding `N=C(N)c1cccc(C[C@H](NS(=O)(=O)c2cccc(NC(=O)CCN)c2)C(=O)N2CCNCC2)c1`, the Ki in data set [3] came out at 0.88 µM; in data set [4], 2.56 µM; in data set [5], 0.037 µM; in data set [6], 2.1 µM; in data set [7], 71.7 µM.

For `N=C(N)c1cccc(C[C@H](NS(=O)(=O)c2cccc(NC(=O)CCN)c2)C(=O)N2CCC(C(N)=O)CC2)c1`, the Ki worked out at 3.3 µM in data set [3]; 1.2 µM in data set [4]; 0.013 µM in data set [5]; 2.5 µM in data set [6]; 1.25 µM in data set [7].

As to `COC(=O)[C@@H]1CCCCN1C(=O)[C@H](Cc1cccc(C(=N)N)c1)NS(=O)(=O)c1cccc(NC(=O)CCN)c1`, the Ki in data set [3] was 126 µM; in data set [4], 69.4 µM; in data set [5], 2.4 µM; in data set [6] it was 127 µM; in data set [7] it was 10.6 µM.
